US7442802B2, “Cyclooxygenase-2 selective inhibitors, compositions and methods of use” (NitroMed, Inc., priority 2002, dated 2008)

Key:
[1] = biological target: T1, COX-1 (Homo sapiens, UniProt P23219); experiment: Human COX-1 enzyme activity in human whole blood (A23187-stimulated, thromboxane B2 EIA); format: cell-based; details: 100 μM, human whole blood, A23187 stimulation; for inhibition at 100 µM: read-out: COX-1 Inhibition (% at 100 μM)
T1 construct: endogenous in cells; host or cells: heparinised human whole blood from donors, stimulated with the calcium ionophore A23187
Method: (§1) The blood was transported to the laboratory on ice packs and used within 1.5 hours of collection. Upon receipt in the laboratory, the blood was allowed to come to room temperature for 15 minutes prior to distribution in 1 mL aliquots per well of 24 well tissue culture plates. […] Test compounds were dissolved in DMSO, at 1000 fold the final desired concentration, and further diluted, as indicated, in DMSO. One μL of each dilution of the test compound was added per well, in duplicate wells; wells not receiving test compound (e.g., basal, background or control wells) received 1 μL DMSO. […] Louis, Mo., Catalogue No. […] Louis, Mo., Catalogue No. […] (Again, basal, background or control wells not stimulated with A23187 received 1 μL of DMSO.) At 5 hours after the addition of the test compound, all incubations were terminated by placement on ice and the addition of 2 mM EGTA (100 μL of 20 mM EGTA, tetrasodium, in PBS (phosphate buffered saline) without Ca^++ and Mg^++, pH 7.2)). […] One hundred μL of plasma was removed from each blood sample and added to 1 mL of methanol in new 15 mL polypropylene centrifuge tubes, vortexed, and stored overnight at -20° C. […] The samples were assayed for thromboxane B2 using EIA kits supplied by Cayman Chemical Co. […] The % inhibition for COX-1 and COX-2 enzyme activity in human whole blood by the test compounds, at the indicated concentrations, are given in Table 1.

[2] = biological target: T2, COX-2 (Homo sapiens, UniProt P35354); experiment: Human COX-2 enzyme activity in human whole blood (LPS-induced, thromboxane B2 EIA); format: cell-based; details: human whole blood, LPS induction; for inhibition at 1 µM: read-out: COX-2 Inhibition (% at 1 μM); for inhibition at 10 µM: read-out: COX-2 Inhibition (% at 10 μM)
T2 construct: To induce COX-2, lipopolysaccharide (LPS) from E. coli; endogenous in cells; host or cells: heparinised human whole blood from donors, with COX-2 induced by E. coli LPS
T2 sequence (P35354 18-604): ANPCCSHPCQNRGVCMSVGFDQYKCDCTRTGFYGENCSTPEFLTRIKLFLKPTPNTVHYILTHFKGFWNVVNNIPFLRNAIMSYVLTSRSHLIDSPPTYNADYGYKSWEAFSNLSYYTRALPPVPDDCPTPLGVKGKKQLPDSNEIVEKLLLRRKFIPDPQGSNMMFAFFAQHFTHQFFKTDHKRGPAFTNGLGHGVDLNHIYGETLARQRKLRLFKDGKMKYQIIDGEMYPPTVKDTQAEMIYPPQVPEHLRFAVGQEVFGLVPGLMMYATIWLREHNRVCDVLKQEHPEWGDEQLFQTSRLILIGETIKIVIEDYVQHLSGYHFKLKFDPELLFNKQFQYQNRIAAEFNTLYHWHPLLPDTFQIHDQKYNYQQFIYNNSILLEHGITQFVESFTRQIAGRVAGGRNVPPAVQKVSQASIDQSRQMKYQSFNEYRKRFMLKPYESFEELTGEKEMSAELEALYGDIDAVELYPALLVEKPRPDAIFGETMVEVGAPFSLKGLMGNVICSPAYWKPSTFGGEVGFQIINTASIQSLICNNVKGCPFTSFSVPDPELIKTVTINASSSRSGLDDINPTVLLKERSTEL
Method: as §1

T1 sequence (P23219 24-599): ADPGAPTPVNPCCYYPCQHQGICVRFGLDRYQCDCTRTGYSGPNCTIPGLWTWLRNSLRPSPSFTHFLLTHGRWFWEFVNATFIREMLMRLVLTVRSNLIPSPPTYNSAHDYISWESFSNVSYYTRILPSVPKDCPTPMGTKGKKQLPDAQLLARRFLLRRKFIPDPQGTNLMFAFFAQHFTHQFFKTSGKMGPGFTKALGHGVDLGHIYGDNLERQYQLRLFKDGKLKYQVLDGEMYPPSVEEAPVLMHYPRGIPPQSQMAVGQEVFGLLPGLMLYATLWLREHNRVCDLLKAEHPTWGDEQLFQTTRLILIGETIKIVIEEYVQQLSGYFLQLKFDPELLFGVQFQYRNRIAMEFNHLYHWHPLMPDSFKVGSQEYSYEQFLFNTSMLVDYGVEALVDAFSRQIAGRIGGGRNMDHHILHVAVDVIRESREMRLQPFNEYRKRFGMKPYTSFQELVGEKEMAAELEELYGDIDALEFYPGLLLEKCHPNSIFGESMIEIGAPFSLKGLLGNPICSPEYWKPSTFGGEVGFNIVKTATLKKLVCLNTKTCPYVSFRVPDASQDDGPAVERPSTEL

Row | Molecule | melting point [°C] | inhibition at 100 µM [1] [%] | inhibition at 1 µM ([2]; 1 μM) [%] | inhibition at 10 µM ([2]; 10 μM) [%] | COX-1 Inhibition (% at 100 μM) [1] [%] | COX-2 Inhibition (% at 1 μM) ([2]; 1 μM) [%] | COX-2 Inhibition (% at 10 μM) ([2]; 10 μM) [%]
1 | Cc1ccc(-c2[nH]nc(COCCCO[N+](=O)[O-])c2-c2ccc(S(N)(=O)=O)cc2)cc1 [Example 20g, 4-(5-(4-Methylphenyl)-3-((3-(nitrooxy)propoxy)methyl)pyrazolyl)benzenesulfonamide] | 62 | – | – | – | – | – | –
2 | CS(=O)(=O)c1ccc(-c2cc(CCO[N+](=O)[O-])nn2C2CCCCC2)cc1 [Example 30d, 4-(1-Cyclohexyl-3-(2-(nitrooxy)ethyl)pyrazol-5-yl)-1-(methylsulfonyl)benzene] | 117 | – | – | – | – | – | –
3 | CS(=O)(=O)c1ccc(-c2cc(CCCC(=O)OCCCO[N+](=O)[O-])nn2-c2ccc(C(F)(F)F)cc2)cc1 [Example 47f, 3-(Nitrooxy)propyl 4-(5-(4-(methylsulfonyl)phenyl)-1-(4-(trifluoromethyl)-phenyl)pyrazol-3-yl)butanoate] | – | 85 | 30 | 65 | – | – | –
4 | CS(=O)(=O)c1ccc(-c2cc(C(=O)CCCCCO)nn2C2CCCCC2)cc1 [Example 22c, 1-(1-Cyclohexyl-5-(4-(methylsulfonyl)phenyl)-pyrazol-3-yl)-6-hydroxyhexan-1-one] | – | 40 | 25 | 80 | – | – | –
5 | CS(=O)(=O)c1ccc(-c2cc(/C=C/CCO[N+](=O)[O-])nn2-c2ccccc2)cc1 [Example 11f, 1-(3-((1E)-4-(Nitrooxy)but-1-enyl)-1-phenylpyrazol-5-yl)-4-(methylsulfonyl)benzene] | – | 85 | 55 | 90 | – | – | –
6 | NS(=O)(=O)c1ccc(-c2c(-c3ccccc3)noc2COCCS(=O)(=O)CCO)cc1 [Example 37b, 4-(5-((2-((2-Hydroxyethyl)sulfonyl)ethoxy)methyl)-3-phenylisoxazol-4-yl)benzenesulfonamide] | – | 50 | 35 | 90 | – | – | –
7 | CS(=O)(=O)c1ccc(-c2cc(COCCO)nn2C2CCCCC2)cc1 [Example 15d, 1-(1-Cyclohexyl-3-((2-hydroxyethoxy)methyl)pyrazol-5-yl)-4-(methylsulfonyl)benzene] | – | 10 | 0 | 40 | – | – | –
8 | NS(=O)(=O)c1ccc(-c2cc(C(=O)CCCO)nn2C2CCCCC2)cc1 [Example 43g, 4-(1-Cyclohexyl-3-(4-hydroxybutanoyl)pyrazol-5-yl)benzenesulfonamide] | – | 30 | 0 | 10 | – | – | –
9 | 4-(5-(Chlorophenyl)-3-((3-(nitrooxy)propoxy)methyl)benzene-sulfonamide [Example 36c] | – | – | – | – | 55 | 40 | 80

The next lines start with results.

Row | melting point [°C] | inhibition at 100 µM [1] [%] | inhibition at 1 µM ([2]; 1 μM) [%] | inhibition at 10 µM ([2]; 10 μM) [%] | Molecule | COX-1 Inhibition (% at 100 μM) [1] [%] | COX-2 Inhibition (% at 1 μM) ([2]; 1 μM) [%] | COX-2 Inhibition (% at 10 μM) ([2]; 10 μM) [%]
10 | – | 40 | 30 | 85 | CS(=O)(=O)c1ccc(-c2cc(COCCCO)nn2-c2ccc(C(F)(F)F)cc2)cc1 [Example 9d, 1-(3-((3-Hydroxypropoxy)methyl)-1-(4-(trifluoromethyl)phenyl)pyrazol-5-yl)-4-(methylsulfonyl)benzene] | – | – | –
11 | – | 10 | 30 | 60 | CS(=O)(=O)c1ccc(-c2cc(C(=O)CCCO)nn2-c2ccc(Cl)cc2)cc1 [Example 44d, 1-(1-(4-Chlorophenyl)-5-(4-(methylsulfonyl)phenyl)pyrazol-3-yl)-4-hydroxybutan-1-one] | – | – | –
12 | – | 40 | 45 | 90 | CS(=O)(=O)c1ccc(-c2cc(COCCCO)nn2-c2ccc(F)cc2)cc1 [Example 18d, 1-(1-(4-Fluorophenyl)-3-((3-hydroxypropoxy)methyl)pyrazol-5-yl)-4-(methylsulfonyl)benzene] | – | – | –
13 | – | 85 | 50 | 85 | COc1ccc(-n2nc(C(=O)CCCO)cc2-c2ccc(S(C)(=O)=O)cc2)cc1 [Example 24d, 4-Hydroxy-1-(1-(4-methoxyphenyl)-5-(4-(methylsulfonyl)phenyl)-pyrazol-3-yl)butan-1-one] | – | – | –
